The results in this text go back to publication PMC12285096, “Tirzepatide mitigates Stroke-Induced Blood-Brain barrier disruption by modulating Claudin-1 and C/EBP-α pathways” (Molecular Medicine, 2025).

One series can be described thus: in vivo. As to conditions: mouse, ip, 10 nmol/kg. How it is done: TZP concentrations were measured in plasma and brain from Sham, TZP, MCAO, and MCAO + TZP groups (n = 6 per group) after 8 weeks of treatment (TZP: 10 nmol/kg, saline: 0.1 mL, i.p., weekly). At 24 h post-final dose, mice were anesthetized (xylazine 8 mg/kg, ketamine 140 mg/kg, i.p.). Plasma was collected via cardiac puncture (0.5 mL, heparinized tubes) and centrifuged (3,000 × g, 10 min, 4 °C). The right cerebral hemisphere was harvested, rinsed in cold saline, weighed, and homogenized in 1 mL PBS with 1% protease inhibitor. Homogenates were centrifuged (10,000 × g, 15 min, 4 °C). TZP was quantified by LC-MS/MS using a Shimadzu LC-20AD system and AB Sciex QTRAP 5500. Samples were diluted 1:10 in acetonitrile with internal standard (semaglutide-d6, 10 ng/mL), separated on a C18 column (2.1 × 100 mm, 1.8 μm), and detected via multiple reaction monitoring (MRM). Calibration curves (0.1–100 ng/mL, r² > 0.99) ensured linearity. Kp, brain was calculated as [TZP]brain (ng/mL, converted from ng/g)/[TZP]plasma (ng/mL). Sham and MCAO groups (no TZP) served as controls. Liraglutide’s Kp, brain was cited from the literature (Rhea et al. [2024]).

For the next series, the system named is HBMVECs. The series is described as follows: TEER of OGD/R-challenged HBMVECs. In kind it is cell-based, human. How it is done:
HBMVECs were sourced from ATCC (USA). These cells were cultivated in a medium specifically designed for endothelial cultures, enriched with 10% FBS, and maintained in an incubator set at a temperature of 37 °C with 5% CO2. For OGD/R modeling, the culture medium was replaced with a serum-free, glucose-free medium, and then it was placed in a hypoxic environment (1% O2, 5% CO2, 94% N2) at a 37 °C incubator for 10 h. After 10 h, the normal medium containing serum was added, and the normal oxygen supply was restored. The cells were then kept in a 37 °C constant temperature incubator for 24 h of reoxygenation. To silence C/EBP-α, HBMVECs were transduced with adenovirus harboring a short hairpin RNA (shRNA) specifically designed to knock down C/EBP-α (Ad-viral sh-C/EBP-α) for 48 h. Approximately 100,000 cells were nurtured in the upper section of the Transwell device. Once the cells had bonded to the container surfaces, TEER values across each group were determined utilizing an impedance meter (Millipore, United States) after 24 h.

In the case of `CC[C@H](C)[C@H](NC(=O)[C@H](CC(C)C)NC(=O)[C@H](Cc1c[nH]c2ccccc12)NC(=O)[C@H](CCC(N)=O)NC(=O)[C@@H](NC(=O)[C@H](Cc1ccccc1)NC(=O)[C@H](C)NC(=O)[C@H](CCCCNC(=O)COCCOCCNC(=O)COCCOCCNC(=O)CC[C@H](NC(=O)CCCCCCCCCCCCCCCCCCC(=O)O)C(=O)O)NC(=O)[C@H](CCC(N)=O)NC(=O)[C@H](C)NC(=O)[C@@H](NC(=O)[C@H](CCCCN)NC(=O)[C@H](CC(=O)O)NC(=O)[C@H](CC(C)C)NC(=O)C(C)(C)NC(=O)[C@@H](NC(=O)[C@H](CO)NC(=O)[C@H](Cc1ccc(O)cc1)NC(=O)[C@H](CC(=O)O)NC(=O)[C@H](CO)NC(=O)[C@@H](NC(=O)[C@H](Cc1ccccc1)NC(=O)[C@@H](NC(=O)CNC(=O)[C@H](CCC(=O)O)NC(=O)C(C)(C)NC(=O)[C@@H](N)Cc1ccc(O)cc1)[C@@H](C)O)[C@@H](C)O)[C@@H](C)CC)[C@@H](C)CC)C(C)C)C(=O)N[C@@H](C)C(=O)NCC(=O)NCC(=O)N1CCC[C@H]1C(=O)N[C@@H](CO)C(=O)N[C@@H](CO)C(=O)NCC(=O)N[C@@H](C)C(=O)N1CCC[C@H]1C(=O)N1CCC[C@H]1C(=O)N1CCC[C@H]1C(=O)N[C@@H](CO)C(N)=O` [TZP, Tirzepatide], the tissue level at time at 24 h in the series “in vivo” (Brain concentration of TZP) came to 9.6 ± 1.2 ng/g. In “in vivo” (Plasma concentration of TZP), the level at 24 h amounted to 80.2 ± 10.1 ng/mL. Further, the TEER values is on record as 145.3 Ω.cm² in the series with HBMVECs (OGD/R + 50 nM TZP, 24 h, control 191.3, OGD/R 115.3, Fig. 6B); 172.9 Ω.cm² in the series with HBMVECs (OGD/R + 100 nM TZP, 24 h, control 191.3, OGD/R 115.3, Fig. 6B); 175.6 Ω.cm² in the series on HBMVECs (sh-C/EBP-α experiment, OGD/R + TZP (100 nM), control 187.4, OGD/R 113.5, Fig. 9C); 138.2 Ω.cm² in the series on HBMVECs (sh-C/EBP-α experiment, OGD/R + sh-C/EBP-α + TZP (100 nM), control 187.4, OGD/R 113.5, Fig. 9C).
